The record followed here is the PolyMetriX glass transition set.

SMILES strings stand for the structures.

The compound `*/C(OC)=C(\OC)c1ccc(*)s1` (repeat unit) registered a glass transition temperature of 91.00 °C.
For the compound `*C(=O)c1ccc2c(c1)C(=O)N(c1ccc(Oc3ccccc3N3C(=O)c4ccc(*)cc4C3=O)cc1)C2=O` (repeat unit), the glass transition temperature worked out at 282.50 °C.
As to `*C(=O)c1ccc2c(c1)C(=O)N(c1ccc(Oc3ccccc3Oc3ccc(N4C(=O)c5ccc(*)cc5C4=O)cc3C(F)(F)F)c(C(F)(F)F)c1)C2=O` (repeat unit), the glass transition temperature came to 236.00 °C.
Consider `*C(=O)c1ccc2c(c1)C(=O)N(c1ccc(Sc3ccc(N4C(=O)c5ccc(*)cc5C4=O)cc3)cc1)C2=O` (repeat unit), for which the glass transition temperature worked out at 276.00 °C.
The value for `*CCCCCCCCCCCCCCc1ccc(-c2c(-c3ccccc3)cc(-c3ccc(-c4cc(-c5ccccc5)c(-c5ccc(*)cc5)c(-c5ccccc5)c4-c4ccccc4)cc3)c(-c3ccccc3)c2-c2ccccc2)cc1` (repeat unit) was 185.00 °C; that for `*CCCCCCCCCCc1ccc(-c2c(-c3ccccc3)cc(-c3ccc(-c4cc(-c5ccccc5)c(-c5ccc(*)cc5)c(-c5ccccc5)c4-c4ccccc4)cc3)c(-c3ccccc3)c2-c2ccccc2)cc1` (repeat unit) was 235.00 °C.
Compound `*CCCCCCNC(=O)c1ccc(C(C)(CC)c2ccc(C(=O)N*)cc2)cc1` (repeat unit) had a glass transition temperature of 164.00 °C.
The value for `*CCCCCCNC(=O)c1ccc(C2(C)CC(C)(C)c3ccc(C(=O)N*)cc32)cc1` (repeat unit) was 190.00 °C; that for `*CCCCCCc1ccc(-c2c(-c3ccccc3)cc(-c3ccc(-c4cc(-c5ccccc5)c(-c5ccc(*)cc5)c(-c5ccccc5)c4-c4ccccc4)cc3)c(-c3ccccc3)c2-c2ccccc2)cc1` (repeat unit) was 250.00 °C.
`*CCCCCCc1ccc(-c2c(-c3ccccc3)cc(-c3cccc(-c4cc(-c5ccccc5)c(-c5ccc(*)cc5)c(-c5ccccc5)c4-c4ccccc4)c3)c(-c3ccccc3)c2-c2ccccc2)cc1` (repeat unit) yielded a glass transition temperature of 215.00 °C.
The value for `*CCCOC(=O)c1cc(/N=N/c2ccc(OCC)cc2)ccc1-c1ccc(/N=N/c2ccc(OCC)cc2)cc1C(=O)O*` (repeat unit) was 101.00 °C; that for `*CCNC(=O)c1ccc([Si](C)(C)c2ccc(C(=O)NCCN(*)c3ccc(/C=C/c4ccc([N+](=O)[O-])cc4)cc3)cc2)cc1` (repeat unit) was 150.00 °C; that for `*CCOC(=O)c1ccc(C2(C)CC(C)(C)c3ccc(C(=O)O*)cc32)cc1` (repeat unit) was 154.00 °C.
In turn, `*CCOCCOCCOC(=O)c1cc(/N=N/c2ccc(OCC)cc2)ccc1-c1ccc(/N=N/c2ccc(OCC)cc2)cc1C(=O)O*` (repeat unit) registered a glass transition temperature of 65.00 °C.
Compound `*Cc1ccc(C(C)(C)c2ccc(CN3C(=O)c4ccc(Oc5ccc6c(c5)C(=O)N(*)C6=O)cc4C3=O)o2)o1` (repeat unit) returned a glass transition temperature of 116.00 °C.
Regarding `*Nc1ccc(C(=O)Nc2ccc(Cc3ccc(NC(=O)c4ccc(NC(=O)c5ccc([Si](C)(C)c6ccc(C(*)=O)cc6)cc5)cc4)cc3)cc2)cc1` (repeat unit), the glass transition temperature came to 300.00 °C.
As for `*Nc1ccc(NC(=O)c2ccc(C(c3ccc(C(*)=O)c(C(=O)OCC)c3)(C(F)(F)F)C(F)(F)F)cc2C(=O)OCC)cc1` (repeat unit), the glass transition temperature was 270.00 °C.
In turn, `*OC(=O)c1ccc(C2(C)CC(C)(C)c3ccc(C(=O)Oc4ccc5c(c4)Oc4cc(*)ccc4C5(C)C)cc32)cc1` (repeat unit) registered a glass transition temperature of 297.00 °C.
In turn, `*Oc1ccc(C(=O)Nc2cc(C(c3ccc(C)c(NC(=O)c4ccc(OC(=O)c5ccc(C(*)=O)cc5)cc4)c3)(C(F)(F)F)C(F)(F)F)ccc2C)cc1` (repeat unit) had a glass transition temperature of 213.00 °C.
The value for `*Oc1ccc(C(C)(C)c2ccc(OC(=O)c3ccc4c(c3)C(C)(c3ccc(C(*)=O)cc3)CC4(C)C)cc2)cc1` (repeat unit) was 265.00 °C; that for `*Oc1ccc(NC(=O)c2ccc(NC(=O)c3ccc([Si](C)(C)c4ccc(C(=O)Nc5ccc(C(=O)Nc6ccc(*)cc6)cc5)cc4)cc3)cc2)cc1` (repeat unit) was 304.00 °C; that for `*Oc1ccc(OC(=O)c2cc(/N=N/c3ccc(OCC)cc3)ccc2-c2ccc(/N=N/c3ccc(OCC)cc3)cc2C(*)=O)cc1` (repeat unit) was 170.00 °C.
The compound `*Oc1ccc(OC(=O)c2ccc(C(C)(C)c3ccc(C(*)=O)cc3)cc2)cc1` (repeat unit) registered a glass transition temperature of 195.00 °C.
The value for `*Oc1ccc(Oc2ccc(NC(=O)c3ccc(-c4ccc(C(=O)Nc5ccc(*)cc5)c(C)c4)cc3C)cc2)cc1` (repeat unit) was 219.00 °C; that for `*Oc1ccc(S(=O)(=O)c2ccc(Oc3ccc(NC(=O)c4ccc(-c5ccc(C(=O)Nc6ccc(*)cc6)c(C)c5)cc4C)cc3)cc2)cc1` (repeat unit) was 251.00 °C.
The value for `*Oc1cccc(OC(=O)c2ccc(C(C)(C)c3ccc(C(*)=O)cc3)cc2)c1` (repeat unit) was 158.00 °C.
`*Oc1cccc(OC(=O)c2ccc([Si](C)(C)c3ccc(C(*)=O)cc3)cc2)c1` (repeat unit) registered a glass transition temperature of 134.00 °C.
The value for `*c1ccc(C(C#N)(C(=O)OC)C(*)(C#N)C(=O)OC)cc1` (repeat unit) was 108.00 °C; that for `*c1ccc(C(C#N)(C(=O)OCC(C)C)C(*)(C#N)C(=O)OCC(C)C)cc1` (repeat unit) was 108.00 °C.
In turn, `*c1ccc(C(C#N)(C(=O)OCC)C(*)(C#N)C(=O)OCC)cc1` (repeat unit) came in with a glass transition temperature of 108.00 °C.
As for `*c1ccc(C(c2ccccc2)c2ccc(-n3c(=O)c4cc5c(=O)n(*)c(=O)c5cc4c3=O)cc2)cc1` (repeat unit), the glass transition temperature came to 321.00 °C.
Take `*c1ccc(C(c2ccccc2)c2ccc(N(*)c3ccc(C)cc3)cc2)cc1` (repeat unit): the glass transition temperature is 199.00 °C.
`*c1ccc(C)c(N2C(=O)c3ccc(S(=O)(=O)c4ccc5c(c4)C(=O)N(*)C5=O)cc3C2=O)c1` (repeat unit) had a glass transition temperature of 348.00 °C.
The value for `*c1ccc(C2(c3ccc(-c4cc(-c5ccccc5)c5cc(C6(c7ccc8nc(*)cc(-c9ccccc9)c8c7)c7ccccc7-c7ccccc76)ccc5n4)cc3)c3ccccc3-c3ccccc32)cc1` (repeat unit) was 390.00 °C.
For the compound `*c1ccc(C2(c3ccc(-c4cc(-c5ccccc5)c5cc(Oc6ccc7nc(*)cc(-c8ccccc8)c7c6)ccc5n4)cc3)c3ccccc3-c3ccccc32)cc1` (repeat unit), the glass transition temperature is 310.00 °C.
With `*c1ccc(NC(=O)c2ccc(NC(=O)c3ccc([Si](C)(C)c4ccc(C(=O)Nc5ccc(C(=O)Nc6ccc(S(*)(=O)=O)cc6)cc5)cc4)cc3)cc2)cc1` (repeat unit), the glass transition temperature worked out at 315.00 °C.
As for `*c1ccc2c(c1)C(=O)N(c1ccc(C(c3ccc(C)c(N4C(=O)c5ccc(C(*)(C(F)(F)F)C(F)(F)F)cc5C4=O)c3)(C(F)(F)F)C(F)(F)F)cc1C)C2=O` (repeat unit), the glass transition temperature was found to be 266.00 °C.
`*c1cccc(NC(=O)c2ccc(-c3ccc(C(=O)Nc4cccc(S(*)(=O)=O)c4)c(C)c3)cc2C)c1` (repeat unit) showed a glass transition temperature of 260.00 °C.
